# Measurements published in EP4574175A1, “PRODRUG FOR ANTI-AGING RELATED DISEASES AND USE METHOD THEREFOR” (BEIJING SUNCELL BIO-MEDICAL CO., LTD., priority 2022, dated 2024).
# Legend:
# [1] = molecular target: T1, E. coli-derived β-galactosidase (Escherichia coli, UniProt P00722); assay: In vitro enzymatic hydrolysis reaction monitored by HPLC; format: biochemical; conditions: 10 µM, PBS pH 7.3, 37°C, 6 hours
# T1 construct: purchased Sigma
# Description: The in vitro enzymatic hydrolysis reaction was carried out using E. coli-derived β-galactosidase (Sigma) in PBS solution (0.01 M, pH 7.3) at a reaction concentration of 10 µM for both A13 and A13bG, and for 6 hours at 37°C after the addition of β-galactosidase (10 U/µM). The hydrolysis reaction was monitored by the high performance liquid chromatography (HPLC). The compound A13 and the prodrug A13bG without enzyme reaction were analyzed by HPLC at the same conditions as the references. The chromatographic column model: Waters Acquity BEH C4, the conditions: 0.04 ml/min, (water (0.1% acetic acid)): the acetonitrile gradient elution: 98:2 1 min, 5:95 13 min, 5:95 18 min, 2:98 20 min.
# [2] = system: mouse model of Bleomycin-induced pulmonary fibrosis; assay: Bleomycin-induced pulmonary fibrosis mouse model; format: in vivo, C57 mice; conditions: A13 2 mg/kg, A13bGa1 5 mg/kg i.p.
# Description: All drugs were mixed in 85% physiological saline, 5% DMSO (Sigma, D8418) and 10% Solutol HS 15 (Sigma, 42966), and administered to mice by intraperitoneal (i.p.) injection. To treat the bleomycin-injured young mice, A13 (2 mg/kg), A13bGa1 (5 mg/kg), or an empty vehicle control was administered three consecutive days per week for four weeks. A1331852 (abbreviated as A13) was purchased from MCE.
# Bleomycin was purchased from Selleck. […]. Drug treatment was initiated four days after modelling, and the drug was administered three consecutive days per week for four consecutive weeks, after which the mice were executed for material collection.
# All animals (including those found dead, dying, and euthanised) were autopsied, and the lung tissues were preserved. The lungs were separated, the fat and other tissues were removed, the surface fluid was absorbed using a filter paper, and the whole lungs were weighed (those found dead, dying, and euthanised) for calculation of the lung weight index. The right lung and bronchiole were fixed in 10% neutral buffered formalin solution, embedded in paraffin, sectioned, prepared into slices, and stained with HE for a histopathological and morphological observation of the lung. The degree of the lesions such as the inflammatory cell infiltration in the lung tissue were graded according to a 4-grade classification (slight, mild, moderate, severe) using a standard terminology for diagnosis and classification. The left lung tissue was clipped and stored temporarily below -60°C. Lung weight index(%) = lung weight/body weight × 100%. [formula]
# Masson trichrome stain kit (Solarbio, G1340) was used to detect fibrosis in the lung tissue. The formalin-fixed, and paraffin-embedded lung sections were dewaxed with xylene, and then rehydrated with 100% alcohol, 95% alcohol and distilled water. The sections were then stained according to the manufacturer's instructions. Afterwards, the sections were rapidly dehydrated with 95% alcohol and 100% alcohol, cleaned with xylene and covered with the coverslips. […]
# [3] = system: mouse model of oxygen-induced retinopathy; assay: Oxygen-induced retinopathy mouse model; format: in vivo, C57BL6/J mice; conditions: single intravitreal injection on postnatal day 12, 50 ng and 100 ng, vs vehicle, IB4 staining at P17
# From the text: Neonatal C57BL6/J mice were exposed to a 75% hyperoxia chamber (Shanghai Tow-Int Tech Co., Ltd., Ox-100HE) from the 7th to the 12th day after birth, together with the surrogate ICR female mice, and the mice were removed and placed in a normal air environment for feeding after 12 days. Hypoxia-induced abnormal vasoproliferative lesions persisted in the retina of the neonatal mice after they were fed under a hyperoxic condition and then transferred to a normoxic condition. This mouse lesion model mimics the retinal lesion characteristic of some human vision-related diseases, such as proliferative diabetic retinopathy.
# Mice on postnatal day 12 were treated with the intravitreal administration of A13bGa1 or vehicle control in each eye of each mouse. […]
# The extracted eyeballs of mice were firstly fixed with 4% paraformaldehyde for 1 hour at room temperature. The retina was carefully detached using the micro ophthalmic scissors and the micro forceps, and then placed in the pre-prepared fluorescence-labelled […] IB4 (Vector, FL-1201) staining solution, and stained overnight at 4 degrees Celsius away from light. Retinal sections were made after the completion of staining, and photographed using a confocal fluorescence microscope (Leica, TCS-SP8). Retinal microvascular stained sections were analyzed for the ischaemic areas and the abnormal neovascular areas using ImageJ (NIH, USA).
# [4] = Plasma metabolic stability; format: in vitro ADME; conditions: 10 µM, 120 minutes; for The peak area after normalisation at minute 120, peak 1 oxidative dehydrogenation: metabolite peak
# Description: Termination of the reaction was accomplished by the addition of 3x volume of acetonitrile and centrifugation at 16000 g for 20 minutes. The supernatant was taken for a LC-MS/MS analysis. The chromatographic column: Waters XSelect HSS T3; the flow rate: 500 µL/min; the eluent: A, water (0.1% formic acid); B, acetonitrile (0.1% formic acid); the gradient elution: 0-1.5 min, 5% B, 1.5-9 min, 5%-80% B, 9-12 min, 80%-100% B, 12-14 min, 100% B, 14-14.3 min, 100%-5% B, 14.3-15 min, 5% B.
# [5] = Hepatic microsomal metabolic stability
# [6] = Hepatic microsomal metabolic stability; remark: listed apart in the source
# T1 sequence (P00722 2-1024): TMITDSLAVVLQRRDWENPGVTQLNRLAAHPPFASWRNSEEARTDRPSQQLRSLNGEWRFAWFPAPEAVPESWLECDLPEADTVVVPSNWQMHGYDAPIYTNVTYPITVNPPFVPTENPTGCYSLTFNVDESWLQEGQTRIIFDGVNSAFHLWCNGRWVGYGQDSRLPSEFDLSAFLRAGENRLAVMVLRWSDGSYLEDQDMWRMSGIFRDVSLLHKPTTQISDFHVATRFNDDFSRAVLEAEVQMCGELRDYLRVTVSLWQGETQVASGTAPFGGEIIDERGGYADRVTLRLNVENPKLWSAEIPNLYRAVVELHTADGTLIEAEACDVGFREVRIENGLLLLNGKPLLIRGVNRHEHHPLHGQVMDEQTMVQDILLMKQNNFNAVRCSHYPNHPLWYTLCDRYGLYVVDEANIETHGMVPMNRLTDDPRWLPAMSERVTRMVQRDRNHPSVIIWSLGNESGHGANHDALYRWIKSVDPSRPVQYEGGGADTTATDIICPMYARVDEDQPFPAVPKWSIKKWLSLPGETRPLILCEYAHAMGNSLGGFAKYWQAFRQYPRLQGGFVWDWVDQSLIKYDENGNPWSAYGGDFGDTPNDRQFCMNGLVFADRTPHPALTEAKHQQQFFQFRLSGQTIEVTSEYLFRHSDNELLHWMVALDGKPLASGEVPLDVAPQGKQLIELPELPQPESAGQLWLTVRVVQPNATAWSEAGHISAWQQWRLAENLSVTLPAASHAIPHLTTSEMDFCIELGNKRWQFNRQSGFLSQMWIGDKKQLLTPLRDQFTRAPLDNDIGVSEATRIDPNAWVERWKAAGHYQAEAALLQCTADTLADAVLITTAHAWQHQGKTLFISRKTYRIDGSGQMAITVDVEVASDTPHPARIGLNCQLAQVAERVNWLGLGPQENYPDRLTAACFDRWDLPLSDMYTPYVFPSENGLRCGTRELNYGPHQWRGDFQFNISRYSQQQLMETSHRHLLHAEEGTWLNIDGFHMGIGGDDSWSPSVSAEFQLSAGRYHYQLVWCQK
smiles,measurement,setting,value
Cc1c(-c2ccc(N3CCc4cccc(C(=O)Nc5nc6ccccc6s5)c4C3)nc2C(=O)OCc2ccc(O[C@@H]3O[C@H](CO)[C@H](O)[C@H](O)[C@H]3O)c([N+](=O)[O-])c2)cnn1CC12CC3CC(CC(C3)C1)C2 [A13bGa1],hydrolysis by β-gal enzyme,[1],hydrolysed under the action of β-gal enzyme to release the parent compound A13
same,pathological manifestations of the pulmonary fibrosis (Masson staining),[2],improved
same,lung index,[2]; 3 consecutive days per week for 4 weeks,recovered to the normal level
same,inflammation and consolidation of the mouse lungs (pathological sections),[2]; HE staining,significant improvement
same,area of the abnormal neovascular area,[3],significantly reduced
same,area of the ischemic lesion area of the retina center,[3],significantly reduced
same,"The peak area after normalisation at minute 120, Initial drug A13bGa1",[4]; Canine plasma,99.52%
same,"The peak area after normalisation at minute 120, Initial drug A13bGa1",[4]; Monkey plasma,99.96%
same,"The peak area after normalisation at minute 120, Initial drug A13bGa1",[4]; Mouse plasma,99.96%
same,"The peak area after normalisation at minute 120, Initial drug A13bGa1",[4]; Rat plasma,99.87%
same,"The peak area after normalisation at minute 120, peak 1 oxidative dehydrogenation",[4]; Canine plasma,0.48%
same,"The peak area after normalisation at minute 120, peak 1 oxidative dehydrogenation",[4]; Monkey plasma,0.04%
same,"The peak area after normalisation at minute 120, peak 1 oxidative dehydrogenation",[4]; Mouse plasma,0.04%
same,"The peak area after normalisation at minute 120, peak 1 oxidative dehydrogenation",[4]; Rat plasma,0.13%
same,CLint scaled,[5],1.07 L/h/kg
same,The hepatic extraction ratio (E),[5]; human,0.86
same,The hepatic extraction ratio (E),[6]; Canine,0.70
same,CLint scaled at 1 µM,"[6]; dog, microsomes",1.3 L/h/kg
same,microsomal CLint at 1 µM,"[6]; dog, microsomes",29.3 µL/min/mg
